Here are results for 31 substances from patent US20120214862A1, “MODULATION OF FACTOR 7 EXPRESSION” (ISIS Pharmaceuticals, Inc., priority 2009, published 2012).

In the oligonucleotide strings, read from the 5' end, every base follows the letter of its sugar. An asterisk marks phosphorothioate; unmarked linkages are phosphodiester. Other units and linkages are bracketed, terminal groups are in braces. A string of capitals states the bases alone. e = 2'-O-(2-methoxyethyl) (MOE); [5mC] = 5-methylcytosine; d = 2'-deoxy (DNA)

For the first data set, the system named is human Factor 7 mRNA. Description: Antisense inhibition of human Factor 7 mRNA in HepB3 cells, lipofectin, 50 nM, real-time RT-PCR. It counts as cell-based. The following applies: Example 1; HepB3 cells, lipofectin, 50 nM, ~24 h, relative to untreated control cells. Put shortly:
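4,000 cells/well; ~24 h exposure; RNA isolated; probe set RTS 2927; normalised to RIBOGREEN® total RNA; % inhibition vs untreated.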
Background: Real-time PCR tracks product formation cycle by cycle.
Take “407669 (antisense eT*eA*eG*eA*e[5mC]*d[5mC]*d[5mC]*dT*d[5mC]*dA*dG*dT*dG*dA*dG*eT*eG*eT*e[5mC]*eG) [compound 407669]”: the “% Inhibition (human Factor 7 mRNA)” value stood at 57%.

Take “407627 (antisense eG*e[5mC]*e[5mC]*e[5mC]*eA*dG*d[5mC]*dA*d[5mC]*d[5mC]*dG*d[5mC]*dG*dA*dT*e[5mC]*eA*eG*eG*eT) [compound 407627]”: the “% Inhibition (human Factor 7 mRNA)” value is 79%.

Regarding “407962 (antisense eT*eT*eG*eG*eA*dA*dG*d[5mC]*dA*dG*d[5mC]*d[5mC]*d[5mC]*dA*d[5mC]*eG*eG*e[5mC]*eT*eG) [compound 407962]”, the “% Inhibition (human Factor 7 mRNA)” value is 41%.

Consider “407927 (antisense eA*eG*eG*eT*eA*dA*dG*dG*dA*dG*dG*d[5mC]*dT*d[5mC]*dA*eG*e[5mC]*eT*eG*eG) [compound 407927]”, for which the “% Inhibition (human Factor 7 mRNA)” value turned out to be 55%.

Regarding “407604 (antisense e[5mC]*eA*e[5mC]*eA*e[5mC]*dT*dG*dG*dT*d[5mC]*d[5mC]*d[5mC]*d[5mC]*dA*dT*e[5mC]*eA*e[5mC]*eT*eG) [compound 407604]”, the “% Inhibition (human Factor 7 mRNA)” value is recorded as 34%.

As to “407918 (antisense e[5mC]*e[5mC]*eT*eG*eG*dT*dG*dT*dA*d[5mC]*dA*d[5mC]*d[5mC]*d[5mC]*d[5mC]*eA*eA*eA*eG*eT) [compound 407918]”, the “% Inhibition (human Factor 7 mRNA)” value is 72%.

As for “407633 (antisense eG*e[5mC]*eA*eG*eG*d[5mC]*dA*dG*dT*d[5mC]*d[5mC]*dT*dG*dG*dG*eT*e[5mC]*eA*eT*e[5mC]) [compound 407633]”, the “% Inhibition (human Factor 7 mRNA)” value amounted to 71%.

For “407956 (antisense eA*eA*e[5mC]*eT*eT*dG*d[5mC]*dA*dT*dT*dT*dA*dG*dT*dG*eA*eT*eG*e[5mC]*eG) [compound 407956]”, the “% Inhibition (human Factor 7 mRNA)” value amounted to 19%.

The same data set, now with this note: Example 4; HepB3 cells, lipofectin, 50 nM, ~24 h, relative to untreated control.
For “422119 (antisense eG*e[5mC]*eG*eG*eA*dA*dG*dA*dA*dG*dG*dG*dA*d[5mC]*dG*eG*eA*eA*eG*eG) [compound 422119]”, the “% Inhibition (human Factor 7 mRNA)” value turned out to be 39%.

With “422117 (antisense eG*eG*eA*eA*eG*dA*dA*dG*dG*dG*dA*d[5mC]*dG*dG*dA*eA*eG*eG*eT*eG) [compound 422117]”, the “% Inhibition (human Factor 7 mRNA)” value amounted to 1%.

The data set is the same for the next values; noted with them: Example 6 microwalk, nucleobases 15098 to 15122 of SEQ ID NO: 1; HepB3, lipofectin, 50 nM, ~24 h.
Turning to “422285 (antisense eG*e[5mC]*dA*d[5mC]*dA*d[5mC]*dA*dT*dG*dG*dA*dG*dT*d[5mC]*dA*eG*e[5mC]*eA*eT*e[5mC]) [compound 422285]”, the “% Inhibition (human Factor 7 mRNA)” value is given as 39%.

As to “422209 (antisense eA*eG*e[5mC]*dA*d[5mC]*dA*d[5mC]*dA*dT*dG*dG*dA*dG*dT*d[5mC]*dA*dG*e[5mC]*eA*eT) [compound 422209]”, the “% Inhibition (human Factor 7 mRNA)” value stood at 47%.

As for “422288 (antisense eA*e[5mC]*dA*dG*d[5mC]*dA*d[5mC]*dA*d[5mC]*dA*dT*dG*dG*dA*dG*eT*e[5mC]*eA*eG*e[5mC]) [compound 422288]”, the “% Inhibition (human Factor 7 mRNA)” value is recorded as 44%.

For “422208 (antisense eG*e[5mC]*eA*d[5mC]*dA*d[5mC]*dA*dT*dG*dG*dA*dG*dT*d[5mC]*dA*dG*d[5mC]*eA*eT*e[5mC]) [compound 422208]”, the “% Inhibition (human Factor 7 mRNA)” value is on record as 56%.

Staying with this data set, now noted: HepB3 cells, lipofectin, 50 nM antisense oligonucleotide, approximately 24 hours, primer probe set RTS 2927, relative to untreated control.
On to “416559 (antisense eG*e[5mC]*e[5mC]*eA*eT*dT*dT*d[5mC]*dT*dA*dG*dG*dT*d[5mC]*dT*eG*e[5mC]*eA*eG*eG) [compound 416559]”, for which the “% Inhibition of human Factor 7 mRNA levels” value amounted to 25%.

Turning to “416451 (antisense eG*e[5mC]*e[5mC]*eA*eT*dG*dG*dA*d[5mC]*dA*d[5mC]*dT*d[5mC]*d[5mC]*d[5mC]*e[5mC]*eT*eT*eT*eG) [compound 416451]”, the “% Inhibition of human Factor 7 mRNA levels” value is 75%.

For “416527 (antisense eG*eA*eG*e[5mC]*eT*dT*d[5mC]*d[5mC]*d[5mC]*dA*dA*dG*dT*dT*dG*eG*e[5mC]*eA*eG*eT) [compound 416527]”, the “% Inhibition of human Factor 7 mRNA levels” value was found to be 49%.

Turning to “416510 (antisense eG*eA*e[5mC]*eG*eA*dG*dG*d[5mC]*d[5mC]*dT*d[5mC]*dA*dG*dG*dT*eG*eG*eA*e[5mC]*eG) [compound 416510]”, the “% Inhibition of human Factor 7 mRNA levels” value is recorded as 30%.

Regarding “416493 (antisense eT*e[5mC]*eT*eT*eG*dG*dG*dT*dG*dT*dG*dG*dA*dT*dG*eT*eA*eA*eA*eT) [compound 416493]”, the “% Inhibition of human Factor 7 mRNA levels” value is 0%.

As for “416423 (antisense eG*eT*eG*eT*eT*dT*d[5mC]*dT*d[5mC]*d[5mC]*dT*d[5mC]*d[5mC]*dT*dG*eA*eG*eG*e[5mC]*e[5mC]) [compound 416423]”, the “% Inhibition of human Factor 7 mRNA levels” value was found to be 51%.

For “416545 (antisense eA*eG*eA*eA*eA*d[5mC]*dA*dT*d[5mC]*d[5mC]*d[5mC]*dA*dT*dT*dT*eT*e[5mC]*e[5mC]*e[5mC]*eA) [compound 416545]”, the “% Inhibition of human Factor 7 mRNA levels” value amounted to 8%.

“416498 (antisense eG*eG*e[5mC]*e[5mC]*eA*dG*dT*dG*dG*d[5mC]*d[5mC]*dA*dT*dG*d[5mC]*eA*eT*e[5mC]*e[5mC]*e[5mC]) [compound 416498]”: the “% Inhibition of human Factor 7 mRNA levels” value was found to be 5%.

Still in this data set, the particulars now being: HepB3 cells; gapmers (5-10-5, 3-14-3, 2-13-5 MOE) targeted to nucleobases 4868 to 4899 of SEQ ID NO: 1.
As for “422216 (antisense eA*eG*eT*dT*d[5mC]*dT*dG*d[5mC]*dA*dG*dG*dA*dG*d[5mC]*dG*dG*d[5mC]*e[5mC]*eT*eA) [compound 422216]”, the “% Inhibition of human Factor 7 mRNA levels” value stood at 68%.

The same data set, now with this note: HepB3 cells; gapmers targeted to nucleobases 11830 to 11869 of SEQ ID NO: 1 (Table 9).
Take “422232 (antisense eG*eT*d[5mC]*dA*dG*dG*dG*d[5mC]*dT*dG*dG*dT*dT*dT*dT*eG*eG*eA*eG*eG) [compound 422232]”: the “% Inhibition of human Factor 7 mRNA levels” value is recorded as 41%.

In the case of “422247 (antisense eG*e[5mC]*dT*dG*dA*dG*dG*dA*dG*dA*d[5mC]*dA*dA*dT*dG*eG*eT*e[5mC]*eA*eG) [compound 422247]”, the “% Inhibition of human Factor 7 mRNA levels” value is reported as 36%.

Turning to “422249 (antisense eT*eG*dG*d[5mC]*dT*dG*dA*dG*dG*dA*dG*dA*d[5mC]*dA*dA*eT*eG*eG*eT*e[5mC]) [compound 422249]”, the “% Inhibition of human Factor 7 mRNA levels” value worked out at 52%.

Staying with this data set, now noted: HepB3 cells; gapmers targeted to nucleobases 13760 to 13789 of SEQ ID NO: 1 (Table 10).
Consider “422115 (antisense eG*e[5mC]*eG*e[5mC]*e[5mC]*dA*d[5mC]*d[5mC]*d[5mC]*dG*d[5mC]*d[5mC]*dG*dG*d[5mC]*eT*e[5mC]*eT*eG*e[5mC]) [compound 422115]”, for which the “% Inhibition of human Factor 7 mRNA levels” value is recorded as 66%.

As to “422182 (antisense e[5mC]*eG*e[5mC]*d[5mC]*dA*d[5mC]*d[5mC]*d[5mC]*dG*d[5mC]*d[5mC]*dG*dG*d[5mC]*dT*d[5mC]*dT*eG*e[5mC]*eT) [compound 422182]”, the “% Inhibition of human Factor 7 mRNA levels” value is given as 11%.

Consider “422114 (antisense e[5mC]*eG*e[5mC]*e[5mC]*eA*d[5mC]*d[5mC]*d[5mC]*dG*d[5mC]*d[5mC]*dG*dG*d[5mC]*dT*e[5mC]*eT*eG*e[5mC]*eT) [compound 422114]”, for which the “% Inhibition of human Factor 7 mRNA levels” value was 50%.

For the substance “422111 (antisense e[5mC]*eA*e[5mC]*e[5mC]*e[5mC]*dG*d[5mC]*d[5mC]*dG*dG*d[5mC]*dT*d[5mC]*dT*dG*e[5mC]*eT*e[5mC]*eA*eT) [compound 422111]”, the “% Inhibition of human Factor 7 mRNA levels” value was determined as 37%.

The data set is the same for the next values; noted with them: HepB3 cells; gapmers targeted to nucleobases 15188 to 15211 of SEQ ID NO: 1 (Table 13).
For “422226 (antisense e[5mC]*eA*dT*dG*dG*dT*dG*dA*dT*dG*d[5mC]*dT*dT*d[5mC]*dT*eG*eA*eA*eT*eT) [compound 422226]”, the “% Inhibition of human Factor 7 mRNA levels” value turned out to be 41%.
